Data reported in patent publication US11278587B2 (9 METERS BIOPHARMA, INC., priority 2018, dated 2022).
Ends that are not written are not given here.

System: MCA205 fibrosarcoma cells
Experiment: MCA205 subcutaneous model, tumor growth kinetics
Format: in vivo, C57BL/6 mice
Details: larazotide 2 days per week with anti-PD1 antibody i.p. at 3 day intervals

GGVLVQPG [larazotide]
enhancement of anti-PD1 effect on MCA205 tumor progression: did not appear to enhance this effect
